Where a SMILES comes first, the peptide text is derived from it.

In the assay the test system is R. oryzae UCP1295. Put plainly: Screening of the Pandemic Response Box library at 5 µM. It counts as cell-based, Rhizopus oryzae. Particulars: 48 h, Table S1, mean of the four values. A digest of the protocol:
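Compounds at 5 μM in RPMI 1640 with 2% glucose and MOPS (0.165 mol/L, pH 7.2), with conidia at 2 × 10^5/mL, incubated 48 h at 37 °C in 5% CO2. Growth read by OD at 600 nm; hits defined as ≥60% inhibition. Posaconazole (5 μM) and 1% DMSO as controls.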
Take `C=C(C)[C@@H]1CC[C@]2(C(=O)O)CC[C@]3(C)[C@H](CC[C@@H]4[C@@]5(C)CC[C@H](O)C(C)(C)[C@@H]5CC[C@]43C)[C@@H]12` [MMV638198]: the “% of growth inhibition, Mean” value amounted to 43.5%.
With `CCc1cc(CCC(=O)Nc2ccccc2O)c(=O)[nH]c1C` [MMV1782106], the “% of growth inhibition, Mean” value is reported as -2.0%.
On to `COc1cccc(N2CCN(C3=Nc4c(F)cccc4[C@H](CC(=O)O)N3c3cc(C(F)(F)F)ccc3OC)CC2)c1` [MMV690653], for which the “% of growth inhibition, Mean” value is -6.7%.
Then `CC(=O)N1c2ccccc2NC2=C(C(=O)CC(C)(C)C2)C1c1ccc(OCc2ccccc2)cc1` (stereo not drawn) [MMV1580503], with -1.0%; and `O=C(O)C(Cc1c[nH]c2ccccc12)N1C(=O)c2ccccc2C1=O` (stereo not drawn) [MMV452821], with -16.1%.
The result for `Cc1ccc(C)c(OCCCCCCN2C[C@H](O)[C@@H](O)[C@H](O)[C@H]2CO)c1` [MMV1634401] reads 10.8%; that for `Cc1nc(-c2ccc(C3N(C)c4ccc(F)cc4C(=O)N3c3ccccc3)s2)cs1` (stereo not drawn) [MMV1582492], -6.7%.
For the molecule `Cc1oncc1C(=O)Nc1ccc(C(F)(F)F)cc1` [MMV003291], the “% of growth inhibition, Mean” value stood at 4.9%.
Then `Cc1ccccc1NC(=O)Nc1cccc([N+](=O)[O-])c1` [MMV1581029], with 1.6%.
For `O=c1[nH]cnc2c1ncn2[C@H]1CC[C@@H](CO)O1` [MMV637306], the “% of growth inhibition, Mean” value is given as -2.1%.
Consider `CC1(C)C[C@H]1C(=O)N/C(=C\CCCCSC[C@@H](N)C(=O)O)C(=O)O.[Na+]` [MMV1613559], for which the “% of growth inhibition, Mean” value is on record as -16.6%.
For `O=c1ccc2ncc(=O)n3c2n1CC3CN1CCC(NCc2cc3c(cn2)OCCC3)CC1` (stereo not drawn) [MMV1578568], the “% of growth inhibition, Mean” value is recorded as -14.8%.
The result for `CC(Oc1ccc(Cl)cc1Cl)C(=O)NCc1ccc2c(c1)OCO2` (stereo not drawn) [MMV1578925] reads -25.4%.
Then `CC(C)(C)c1ccc(OCCn2nc(C(=O)O)c3ccccc3c2=O)cc1` [MMV1634387], with -15.4%; and `Fc1ccc(-n2cc(Cn3c(-c4cccc(F)c4)nc4ccccc43)nn2)cc1` [MMV1580850], with -26.0%; and `Nc1nc(O)c2ncn(COC(CO)CO)c2n1` [MMV001761], with -10.5%.
The result for `CC(N)C(=O)NC(CCCCN)C(=O)NC(CCCNC(=N)N)C(=O)NC(Cc1c[nH]cn1)C(=O)NC(Cc1c[nH]cn1)C(=O)NCC(=O)NC(Cc1ccc(O)cc1)C(=O)NC(CCCCN)C(=O)NC(CCCNC(=N)N)C(=O)NC(CCCCN)C(=O)NC(Cc1ccccc1)C(=O)NC(Cc1c[nH]cn1)C(N)=O` (stereo not drawn) [MMV1579849] (H-AKRHHGYKRKFH-NH2; configuration not given here) reads -25.8%; that for `CC1(C)CC(NC(=O)C(=O)Nc2ccc(Cl)cc2)CC(C)(C)N1` [MMV1580501], -11.4%.
As for `O=C(Nc1ccccc1)N(Cc1cc(Br)ccc1O)c1ccc(F)cc1` [MMV1581552], the “% of growth inhibition, Mean” value is on record as -12.1%.
Then `O=[N+]([O-])/C(Br)=C/c1ccc(Br)o1` [MMV1645051], with -39.6%.
The result for `O=C(Nc1ccccc1C(=O)O)c1cccc(Oc2ccccc2)c1` [MMV1579784] reads -27.4%; that for `CC(C)=CCC/C(C)=C\CNCCNC1C2CC3CC(C2)CC1C3` (stereo not drawn) [MMV687273], -3.3%.
The result for `CCCCc1ccc(C(=O)O)nc1` [MMV001726] reads -15.9%.
Take `CC[C@H]1OC(=O)[C@H](C)[C@@H](O[C@H]2C[C@@](C)(OC)[C@@H](O)[C@H](C)O2)[C@H](C)[C@@H](O[C@@H]2O[C@H](C)C[C@H](N(C)C)[C@H]2O)[C@](C)(O)C[C@@H](C)C(=O)[C@H](C)[C@@H](O)[C@]1(C)O` [MMV003137]: the “% of growth inhibition, Mean” value was -11.8%.
As for `COc1ccc(SC(=O)N[C@H](CCC(=O)O)C(=O)O)cc1` [MMV1580846], the “% of growth inhibition, Mean” value is reported as -33.5%.
Take `CCCCCc1ccc(C(=O)NCCn2cc(CCCCCc3c[nH]c(N)n3)nn2)cc1.Cl` [MMV1580847]: the “% of growth inhibition, Mean” value is -16.8%.
As to `NC(=O)[C@@H]1CC[C@@H]2CN1C(=O)N2OS(=O)(=O)O` [MMV1613560], the “% of growth inhibition, Mean” value is -12.6%.
For `Nc1nc(NC2Cc3ccc(F)cc3C2)nc(N2CCCCC2)n1` (stereo not drawn) [MMV1580839], the “% of growth inhibition, Mean” value was -3.1%.
The result for `CC1CN(c2ncnc3c2c(-c2ccccc2)cn3-c2ccc(F)cc2)CC(C)O1` (stereo not drawn) [MMV093250] reads -16.0%; that for `CCOc1ccc(/C=N/NC(=O)C2CC2c2ccc(C(C)(C)C)cc2)cc1OCC` (stereo not drawn) [MMV1634398], 4.7%; that for `Cc1cc(Nc2ccc(F)cc2)nc(SCc2nc3ccccc3[nH]2)n1` [MMV1582498], -17.0%.
In the case of `COc1ccc(C2CNC(=O)C2)cc1OC1CCCC1` (stereo not drawn) [MMV003738], the “% of growth inhibition, Mean” value is on record as -1.4%.
As for `Nc1ccc(-c2nc3cc(C(F)(F)F)ccc3n2C23CC4CC(CC(C4)C2)C3)cc1` [MMV1634385], the “% of growth inhibition, Mean” value is -6.2%.
Turning to `O=S(=O)(NCB(O)O)c1ccc(-c2nnn[nH]2)cc1C(F)(F)F` [MMV1782411], the “% of growth inhibition, Mean” value is reported as -7.7%.
With `CCCCN1C[C@H](O)[C@@H](O)[C@H](O)[C@H]1CO` [MMV1782098], the “% of growth inhibition, Mean” value was -8.6%.
For the molecule `CCCCSc1nc(N)c2[nH]c(=O)c(=O)n(Cc3ccccc3)c2n1` [MMV1579783], the “% of growth inhibition, Mean” value is recorded as -34.5%.
Consider `O=c1nc(N2CCN(CC3CCCCC3)CC2)sc2c([N+](=O)[O-])cc(C(F)(F)F)cc12` [MMV1578885], for which the “% of growth inhibition, Mean” value is -14.2%.
Then `CCOC(=O)N[C@@H]1CC[C@@H]2[C@@H](C1)C[C@H]1C(=O)O[C@H](C)[C@H]1[C@H]2/C=C/c1ccc(-c2cccc(F)c2)cn1` [MMV1593515], with 26.6%; and `CCc1cc(Nc2cc(=O)n(CCN3CCN(C(=O)c4ccccc4)CC3)c(=O)[nH]2)ccc1C` [MMV1634383], with -3.9%; and `O=C(Cc1ccccc1F)Nc1nc2ccccc2[nH]1` [MMV1578576], with -39.7%.
With `CN(C)CCNC(=O)c1cccc2cccnc12` [MMV811071], the “% of growth inhibition, Mean” value is -21.7%.
With `COC(=O)Nc1nc2ccccc2[nH]1` [MMV344625], the “% of growth inhibition, Mean” value is recorded as -13.3%.
With `O=C(/C=C\n1cnc(-c2cc(C(F)(F)F)cc(C(F)(F)F)c2)n1)NNc1ccccn1` [MMV1580493], the “% of growth inhibition, Mean” value was 42.7%.
Then `Cc1nc2ccc(Oc3ccccc3)cc2c2c1CCN2CCc1ccccc1` [MMV1634399], with -16.3%; and `O=C1NC(=S)N/C1=C\c1cc(Br)cc(Br)c1O` [MMV1578569], with -14.5%.
On to `COc1ccccc1NC(=O)c1ccccc1Sc1ccc([N+](=O)[O-])cc1` [MMV1580484], for which the “% of growth inhibition, Mean” value was -7.7%.
Turning to `Cc1ccn2c(C(=O)NCc3ccccc3)c(C)nc2c1` [MMV1579847], the “% of growth inhibition, Mean” value is on record as -7.2%.
As for `CCOc1ccc(C(=O)NCCc2ccccc2)cc1` [MMV124656], the “% of growth inhibition, Mean” value was -37.8%.
`O=C(c1ccccc1)N1CCN(c2ccccc2NC(=O)C(Cl)(Cl)Cl)CC1` [MMV001014]: the “% of growth inhibition, Mean” value was -10.6%.
With `O=C(/C=C/n1cnc(-c2cc(C(F)(F)F)cc(C(F)(F)F)c2)n1)NNc1cnccn1` [MMV1593517], the “% of growth inhibition, Mean” value was -8.5%.
In the case of `CC(C)c1cc2c(cc1S(=O)(=O)O)[C@@]1(C)CCC[C@@](C)(C(=O)O)[C@@H]1CC2` [MMV1633675], the “% of growth inhibition, Mean” value was -25.5%.
Then `CCc1ccccc1OCCN1CCCCCC1` [MMV1633962], with -12.2%; and `COC(=O)Nc1nc2c(C)cccc2[nH]1` [MMV1782387], with -30.6%.
Then `O=C(N[C@H](CCS)C(=O)N[C@H](Cc1ccccc1)C(=O)O)c1cc2ccccc2[nH]1` [MMV1581557], with 0.3%.
For the molecule `COc1ccc(-n2cnc3cc(NCc4ccco4)ccc32)cc1` [MMV617332], the “% of growth inhibition, Mean” value is recorded as 22.8%.
Regarding `CCOC(=O)/C=C/[C@H](C[C@@H]1CCNC1=O)NC(=O)[C@@H](CC(=O)[C@@H](NC(=O)c1cc(C)on1)C(C)C)Cc1ccc(F)cc1` [MMV1580491], the “% of growth inhibition, Mean” value is reported as -18.6%.
The result for `COC(=O)Nc1nc2ccc([S+]([O-])c3ccccc3)cc2[nH]1` (stereo not drawn) [MMV002565] reads -39.5%; that for `O=C(NC1CCCc2c1[nH]c1ccc(Cl)cc21)c1ccccn1` (stereo not drawn) [MMV690621], -11.4%; that for `FC(F)(F)Oc1ccc(Nc2ccc3cccc(Cl)c3n2)cc1` [MMV1581032], -3.7%.
`COc1ccc2sc3c(c2c1)NC(C)CNC3=O` (stereo not drawn) [MMV1782115]: the “% of growth inhibition, Mean” value is on record as -2.6%.
In the case of `O=C(O)c1ccc(-n2nc(-c3ccccc3O)nc2-c2ccccc2O)cc1` [MMV640014], the “% of growth inhibition, Mean” value is on record as -17.8%.
For `Cc1onc(-c2ccccc2)c1-c1ccc(S(N)(=O)=O)cc1` [MMV002260], the “% of growth inhibition, Mean” value was -15.5%.
For `COc1ccc2c(c1)cc(CNC(=O)c1cc3ccccc3o1)n2CC(=O)O` [MMV1581553], the “% of growth inhibition, Mean” value is -20.7%.
In the case of `N#Cc1c(F)c(Cl)c(NCc2ccccc2)c(C#N)c1F` [MMV1582496], the “% of growth inhibition, Mean” value is given as -1.3%.
`O=C(NCc1cccc2ccccc12)c1cccs1` [MMV1579845]: the “% of growth inhibition, Mean” value is on record as -15.7%.
As for `CCc1cc(O)c(Oc2cccnc2N)cc1F` [MMV1580854], the “% of growth inhibition, Mean” value is given as -36.7%.
`CN(C/C=C/C#CC(C)(C)C)Cc1cccc2ccccc12` [MMV1634359]: the “% of growth inhibition, Mean” value is on record as -42.5%.
The result for `COc1ccc2nc(-c3ccccc3)cc(O)c2c1` [MMV011565] reads -42.1%.
Take `CCc1nc(N)nc(N)c1C#CCc1ccccc1` [MMV1581549]: the “% of growth inhibition, Mean” value worked out at 18.7%.

(Values after paper PMC9959553, “Promising Antifungal Molecules against Mucormycosis Agents Identified from Pandemic Response Box®: In Vitro and In Silico Analyses” (Journal of Fungi, 2023).)
